Test results: paper PMC9516332 (Frontiers in Oncology, 2022)
Read-outs that look alike come from different tables or passages of the source.

How the values were obtained:
[1] = target: T1, panel of 255 wild-type kinases (Homo sapiens, UniProt P15735); conditions: kinase PHKG2; 1 µmol/L single concentration; ref DOI: 10.1158/1535-7163.MCT-18-0877; cited from earlier work
T1 sequence (P15735 1-406): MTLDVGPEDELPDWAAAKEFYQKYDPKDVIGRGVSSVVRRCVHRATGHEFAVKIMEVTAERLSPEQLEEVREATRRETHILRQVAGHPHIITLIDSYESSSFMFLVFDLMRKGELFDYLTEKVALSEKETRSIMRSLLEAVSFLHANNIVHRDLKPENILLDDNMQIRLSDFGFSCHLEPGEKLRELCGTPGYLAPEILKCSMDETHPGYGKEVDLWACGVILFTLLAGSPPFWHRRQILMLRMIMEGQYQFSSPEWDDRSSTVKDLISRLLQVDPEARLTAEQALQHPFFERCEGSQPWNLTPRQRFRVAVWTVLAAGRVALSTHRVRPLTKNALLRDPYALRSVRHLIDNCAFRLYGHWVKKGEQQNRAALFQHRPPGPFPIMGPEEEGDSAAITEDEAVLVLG

134 cancer cell lines = experiment: Cell viability assay (ATPlite, 72 hours), IC50 on cancer cell line panel
[2] = Homo sapiens, A204, read-out: IC50 in cell proliferation assay
[3] = Homo sapiens, Kasumi 1, read-out: IC50 in cell proliferation assay
[4] = Homo sapiens, MDA-MB-453, read-out: IC50 in cell proliferation assay
[5] = Homo sapiens, MOLM-13, read-out: IC50 in cell proliferation assay
[6] = Homo sapiens, MV4-11, read-out: IC50 in cell proliferation assay
[7] = Homo sapiens, SK-N-SH, read-out: IC50 in cell proliferation assay

## C=CC(=O)N1CCC[C@@H](n2nc(-c3ccc(Oc4ccccc4)cc3)c3c(N)ncnc32)C1 [ibrutinib]
[1]
  %-inhibition at 1 µmol/L, PHKG2: 0.816%
134 cancer cell lines; Homo sapiens, 769-P, read-out: IC50 in cell proliferation assay
  IC50: 0.624 µM
134 cancer cell lines; Homo sapiens, 786-0, read-out: IC50 in cell proliferation assay
  IC50: 0.447 µM
134 cancer cell lines; [2]
  IC50: 29.2 µM
134 cancer cell lines; Homo sapiens, A498, read-out: IC50 in cell proliferation assay
  IC50: 10.1 µM
134 cancer cell lines; Homo sapiens, A-427, read-out: IC50 in cell proliferation assay
  IC50: 7.61 µM
134 cancer cell lines; Homo sapiens, ACHN, read-out: IC50 in cell proliferation assay
  IC50: 0.675 µM
134 cancer cell lines; Homo sapiens, AN3-CA, read-out: IC50 in cell proliferation assay
  IC50: 12.7 µM
134 cancer cell lines; Homo sapiens, AU565, read-out: IC50 in cell proliferation assay
  IC50: 0.042 µM
134 cancer cell lines; Homo sapiens, BT-474, read-out: IC50 in cell proliferation assay
  IC50: 0.028 µM
134 cancer cell lines; Homo sapiens, BT-549, read-out: IC50 in cell proliferation assay
  IC50: 17.5 µM
134 cancer cell lines; Homo sapiens, BXPC-3, read-out: IC50 in cell proliferation assay
  IC50: 1.41 µM
134 cancer cell lines; Homo sapiens, C-33-A, read-out: IC50 in cell proliferation assay
  IC50: 0.046 µM
134 cancer cell lines; Homo sapiens, CAL-27, read-out: IC50 in cell proliferation assay
  IC50: 0.374 µM
134 cancer cell lines; Homo sapiens, CCRF-CEM, read-out: IC50 in cell proliferation assay
  IC50: 8.44 µM
134 cancer cell lines; Homo sapiens, DU-145, read-out: IC50 in cell proliferation assay
  IC50: 0.148 µM
134 cancer cell lines; Homo sapiens, DU-4475, read-out: IC50 in cell proliferation assay
  IC50: 20.1 µM
134 cancer cell lines; Homo sapiens, Daoy, read-out: IC50 in cell proliferation assay
  IC50: 23.1 µM
134 cancer cell lines; Homo sapiens, DoTc2-4510, read-out: IC50 in cell proliferation assay
  IC50: 0.209 µM
134 cancer cell lines; Homo sapiens, EOL1, read-out: IC50 in cell proliferation assay
  IC50: 0.347 µM
134 cancer cell lines; Homo sapiens, FaDu, read-out: IC50 in cell proliferation assay
  IC50: 0.095 µM
134 cancer cell lines; Homo sapiens, HCC827, read-out: IC50 in cell proliferation assay
  IC50: 0.236 µM
134 cancer cell lines; Homo sapiens, HCT-116, read-out: IC50 in cell proliferation assay
  IC50: 26.4 µM
134 cancer cell lines; Homo sapiens, HEC-1B, read-out: IC50 in cell proliferation assay
  IC50: 0.294 µM
134 cancer cell lines; Homo sapiens, HL-60, read-out: IC50 in cell proliferation assay
  IC50: 29.7 µM
134 cancer cell lines; Homo sapiens, HT, read-out: IC50 in cell proliferation assay
  IC50: 0.902 µM
134 cancer cell lines; Homo sapiens, Hs-578T, read-out: IC50 in cell proliferation assay
  IC50: 15.1 µM
134 cancer cell lines; Homo sapiens, HuTu80, read-out: IC50 in cell proliferation assay
  IC50: 3.66 µM
134 cancer cell lines; Homo sapiens, J82, read-out: IC50 in cell proliferation assay
  IC50: 25.5 µM
134 cancer cell lines; Homo sapiens, Jurkat E6.1, read-out: IC50 in cell proliferation assay
  IC50: 10.8 µM
134 cancer cell lines; Homo sapiens, K562, read-out: IC50 in cell proliferation assay
  IC50: 7.32 µM
134 cancer cell lines; Homo sapiens, KATO III, read-out: IC50 in cell proliferation assay
  IC50: 1.04 µM
134 cancer cell lines; Homo sapiens, KG-1, read-out: IC50 in cell proliferation assay
  IC50: 1.35 µM
134 cancer cell lines; Homo sapiens, KLE, read-out: IC50 in cell proliferation assay
  IC50: 0.075 µM
134 cancer cell lines; Homo sapiens, KMS-11, read-out: IC50 in cell proliferation assay
  IC50: 27.9 µM
134 cancer cell lines; Homo sapiens, KU812, read-out: IC50 in cell proliferation assay
  IC50: 2.81 µM
134 cancer cell lines; [3]
  IC50: 7.92 µM
134 cancer cell lines; Homo sapiens, LC-2-ad, read-out: IC50 in cell proliferation assay
  IC50: 1.83 µM
134 cancer cell lines; Homo sapiens, LS174T, read-out: IC50 in cell proliferation assay
  IC50: 11.6 µM
134 cancer cell lines; Homo sapiens, LS-411N, read-out: IC50 in cell proliferation assay
  IC50: 23 µM
134 cancer cell lines; [4]
  IC50: 0.411 µM
134 cancer cell lines; Homo sapiens, MDA-MB-468, read-out: IC50 in cell proliferation assay
  IC50: 1.04 µM
134 cancer cell lines; [5]
  IC50: 0.426 µM
134 cancer cell lines; Homo sapiens, MOLT-4, read-out: IC50 in cell proliferation assay
  IC50: 1.88 µM
134 cancer cell lines; [6]
  IC50: 1.01 µM
134 cancer cell lines; Homo sapiens, MeWo, read-out: IC50 in cell proliferation assay
  IC50: 29.1 µM
134 cancer cell lines; Homo sapiens, NCCIT, read-out: IC50 in cell proliferation assay
  IC50: 5.1 µM
134 cancer cell lines; Homo sapiens, NCI-H82, read-out: IC50 in cell proliferation assay
  IC50: 18.4 µM
134 cancer cell lines; Homo sapiens, NCI-H661, read-out: IC50 in cell proliferation assay
  IC50: 0.123 µM
134 cancer cell lines; Homo sapiens, NCI-H716, read-out: IC50 in cell proliferation assay
  IC50: 1.3 µM
134 cancer cell lines; Homo sapiens, NCI-H1650, read-out: IC50 in cell proliferation assay
  IC50: 0.11 µM
134 cancer cell lines; Homo sapiens, NCI-H1975, read-out: IC50 in cell proliferation assay
  IC50: 0.576 µM
134 cancer cell lines; Homo sapiens, NCI-H2228, read-out: IC50 in cell proliferation assay
  IC50: 29.9 µM
134 cancer cell lines; Homo sapiens, OVCAR-3, read-out: IC50 in cell proliferation assay
  IC50: 0.2 µM
134 cancer cell lines; Homo sapiens, PFSK-1, read-out: IC50 in cell proliferation assay
  IC50: 25.6 µM
134 cancer cell lines; Homo sapiens, RL95-2, read-out: IC50 in cell proliferation assay
  IC50: 0.032 µM
134 cancer cell lines; Homo sapiens, RPMI-7951, read-out: IC50 in cell proliferation assay
  IC50: 26.9 µM
134 cancer cell lines; Homo sapiens, Rec1, read-out: IC50 in cell proliferation assay
  IC50: 0.000511 µM
134 cancer cell lines; Homo sapiens, SK-BR-3, read-out: IC50 in cell proliferation assay
  IC50: 0.011 µM
134 cancer cell lines; Homo sapiens, SK-N-MC, read-out: IC50 in cell proliferation assay
  IC50: 1.52 µM
134 cancer cell lines; [7]
  IC50: 26.3 µM
134 cancer cell lines; Homo sapiens, SNU-5, read-out: IC50 in cell proliferation assay
  IC50: 17.6 µM
134 cancer cell lines; Homo sapiens, SNU-C2B, read-out: IC50 in cell proliferation assay
  IC50: 0.3 µM
134 cancer cell lines; Homo sapiens, SU-DHL-6, read-out: IC50 in cell proliferation assay
  IC50: 0.012 µM
134 cancer cell lines; Homo sapiens, SUP-T1, read-out: IC50 in cell proliferation assay
  IC50: 1.31 µM
134 cancer cell lines; Homo sapiens, SW48, read-out: IC50 in cell proliferation assay
  IC50: 0.021 µM
134 cancer cell lines; Homo sapiens, SW780, read-out: IC50 in cell proliferation assay
  IC50: 18.7 µM
134 cancer cell lines; Homo sapiens, T98G, read-out: IC50 in cell proliferation assay
  IC50: 20.6 µM
134 cancer cell lines; Homo sapiens, TCC-SUP, read-out: IC50 in cell proliferation assay
  IC50: 18.1 µM
134 cancer cell lines; Homo sapiens, U2OS, read-out: IC50 in cell proliferation assay
  IC50: 10.1 µM
134 cancer cell lines; Homo sapiens, U-118-MG, read-out: IC50 in cell proliferation assay
  IC50: 23.3 µM
134 cancer cell lines; L-82, read-out: IC50 in cell proliferation assay
  IC50: 17.7 µM
134 cancer cell lines; Rh30, read-out: IC50 in cell proliferation assay
  IC50: 25.7 µM

## CO[C@@H]1[C@H](N(C)C(=O)c2ccccc2)C[C@H]2O[C@]1(C)n1c3ccccc3c3c4c(c5c6ccccc6n2c5c31)C(=O)NC4 [midostaurin]
[1]
  %-inhibition at 1 µmol/L, PHKG2: 67%
134 cancer cell lines; [2]
  IC50: 0.334 µM
134 cancer cell lines; [3]
  IC50: 0.32 µM
134 cancer cell lines; [4]
  IC50: 7.64 µM
134 cancer cell lines; [5]
  IC50: 0.014 µM
134 cancer cell lines; [6]
  IC50: 0.015 µM
134 cancer cell lines; [7]
  IC50: 0.326 µM
